# A melting point compilation (Tetko et al.)
row,melting point [°C],SMILES
1,199 to 201,CCCNS(=O)(=O)c1cccc(C(=O)O)c1
2,158 to 160,CC(NC(=O)c1ccc(Cl)cc1)C(=O)O (stereo not drawn)
3,115 to 117,O=C(O)Cc1csc(-c2cccnc2)n1
4,111 to 113,CC(=O)c1nnn(-c2ccc(C)cc2)c1C
5,121 to 123,CC1c2ccccc2OC1C(=O)O (stereo not drawn)
6,45 to 47,O=Cc1ccc(OCc2cccc(F)c2)cc1
7,121 to 123,O=C(O)C1CCCCN1C(=O)C1CCCC1 (stereo not drawn)
8,135 to 137,Nc1cc(Cl)c([N+](=O)[O-])cc1OCc1ccccc1
9,214 to 216,CCC1CCC2(CC1)NC(=O)N(CC(=O)O)C2=O (stereo not drawn)
10,41 to 43,CC1(C)Cc2ccccc2C1=O
11,81 to 83,O=C(c1ccc2c(c1)CCO2)c1cc(Cl)ccc1Cl
12,151 to 153,COc1ccc(O)c(C(N)=O)c1
13,224 to 226,O=C(O)c1cc2ccccc2c(Nc2ccccc2F)n1
14,168 to 170,CN1CCN(S(=O)(=O)c2ccc(NN)nc2)CC1
15,149 to 151,O=C(O)C1CC(=O)N(c2ccc(Cl)c(F)c2)C1 (stereo not drawn)
16,136 to 138,O=C(CC1CCCCC1)NC1CCC(C(=O)O)CC1 (stereo not drawn)
17,156 to 158,CC(C)c1ccc(-c2nc(CSc3nnc(N)[nH]3)cs2)cc1
18,140 to 142,CC(C)C(NC(=O)Nc1ccccc1)C(=O)O (stereo not drawn)
19,179 to 181,O=C(O)c1cc(=O)c(OCc2ccccc2)co1
20,210 to 212,Nc1nnc(C2COc3ccccc3O2)o1 (stereo not drawn)
21,78 to 80,CCC(C#N)NC(=O)OC(C)(C)C (stereo not drawn)
22,138 to 140,CC(N)c1cc(F)ccc1N1CCC(O)CC1 (stereo not drawn)
23,334 to 336,Nc1n[nH]c(=O)[nH]c1=O

row,melting point [°C],SMILES
1,43 to 45,CCN1CCCC1CN=C=S (stereo not drawn)
2,199 to 201,O=C(O)Cc1ccc(NC(=O)c2ccc(Br)o2)cc1
3,35 to 37,N#CCc1ccc(F)c(Br)c1
4,57 to 59,COc1cc(C)nc(C=O)c1
5,70 to 72,CCCN1C(=O)CNc2ccccc21
6,118 to 120,Cc1ccc(CCC(=O)NCC(=O)O)cc1
7,189 to 191,Cc1cc(C)c(S(=O)(=O)Cl)cc1C(=O)O
8,83 to 85,CCNC(=O)CN1CCNCC1
9,252 to 257,Cc1ccc(S(=O)(=O)NC2CC2)cc1C(=O)O
10,105 to 115,ClCc1nc2cc(Cl)ccc2n1Cc1ccccc1
11,55 to 57,Cc1c(Cl)cc(N)cc1Cl
12,100 to 102,CCOC(=O)c1sc(-c2ccc(Cl)cc2Cl)cc1N
13,181 to 185,CC(C)(C)NS(=O)(=O)c1ccc(C(=O)O)cc1
14,225 to 227,O=C1CCC2(C(=O)O)Sc3ccccc3N12 (stereo not drawn)
15,101 to 103,CCOC(=O)c1c(C)nn(C)c1N
16,191 to 193,CC(C)(C)n1ncc2c(=O)[nH]c(Cl)nc21
17,131 to 133,CN(C)Cc1nc(S)c2ccccc2n1
18,64 to 66,O=C(O)Cc1ccc(F)c(Br)c1
19,95 to 97,COc1ccccc1NC(=O)Cc1noc(CCl)n1
20,89 to 91,N#Cc1cccc(NC(=O)CC2CC2)c1
21,164 to 166,O=Cc1sc(Nc2ccccc2)nc1Cl
22,141 to 143,O=C(O)CS(=O)Cc1ccc(Br)cc1 (stereo not drawn)
23,65 to 69,ClCc1cnn(-c2ccccc2)c1

row,melting point [°C],SMILES
1,115 to 117,COC(=O)Nc1ccc(O)cc1
2,199 to 201,NC(=S)C(NC(=O)c1ccccc1)C1CC1 (stereo not drawn)
3,187 to 189,O=C1Nc2c(cccc2C(F)(F)F)C1=O
4,156 to 158,COc1cccc(C(=O)NN2C(=O)CSC2=S)c1
5,222 to 224,CCOc1ccc(-c2csc(=O)[nH]2)cc1
6,96 to 98,Fc1ccc(-c2cc[nH]n2)cc1
7,135 to 137,NNC(=O)c1ccc(Cl)cc1F
8,153 to 155,NNc1nccnc1Cl
9,185 to 187,Cc1ccc(C(=O)O)cc1S(=O)(=O)NC1CCCC1
10,59 to 61,COc1nc(C)cc(Cl)n1
11,157 to 159,Cc1noc(C)c1COc1cccc(C(=O)O)c1
12,222 to 224,Oc1ccc(-c2noc(-c3cccc(Br)c3)n2)cc1
13,72 to 74,CCOc1nc(Cl)ncc1Br
14,273 to 275,O=C(O)c1ccc(-n2cc(Br)cn2)cc1
15,97 to 99,O=CCN1C(=O)COc2ccccc21
16,98 to 100,COc1cc(CC#N)cc(Cl)c1OCC(F)(F)F
17,110 to 112,O=C(O)CCS(=O)c1ccc2c(c1)OCCO2 (stereo not drawn)
18,136 to 138,N#Cc1ccccc1NC(=O)c1ccccn1
19,124 to 126,C=CCc1cc(C(=O)O)cc(OC)c1OC
20,75 to 77,O=C1CCC(C(F)(F)F)=NN1
21,226 to 228,CS(=O)(=O)c1ccc(C(N)=O)cc1
22,168 to 170,CC(C)N(C)S(=O)(=O)c1cccc(C(=O)O)c1
23,44 to 46,CCOC(=O)COc1ccccc1C(C)=O

row,melting point [°C],SMILES
1,189 to 191,CC(C)C(NC(=O)c1ccc(Br)cc1)C(=O)O (stereo not drawn)
2,140 to 147,Cc1ccc(C(=O)O)cc1S(=O)(=O)Cl
3,240 to 242,O=C(Nc1ccsc1C(=O)O)c1ccc(Br)cc1
4,263 to 265,Cc1nc(-c2cccnc2)[nH]c(=O)c1CC(=O)O
5,140 to 142,Cc1cc(C)cc(C(=O)CC#N)c1
6,164 to 166,CC(C)(C)OC(=O)NCc1ccc(C(=O)O)cc1
7,118 to 120,CCOC(=O)c1cc(N)[nH]n1
8,266 to 268,Cc1cc(C(=O)O)nc2nc(O)[nH]c(=O)c12
9,128 to 130,CSc1ccc(C)c(C(=O)O)c1
10,288 to 290,O=C(O)c1c[nH]nc1-c1ccccc1F
11,84 to 86,C=CCNc1nc(C(=O)OCC)cs1
12,57 to 61,O=S(=O)(c1ccc(CBr)cc1)C(F)F
13,138 to 142,O=C(O)COc1ccc(Nc2ccccc2)cc1
14,66 to 68,CCOc1ccccc1OCCCC(=O)O
15,89 to 91,Oc1cc(Br)ccc1C(F)(F)F
16,122 to 124,NNc1nc(C(F)(F)F)cs1
17,77 to 79,CC(O)c1cnc(-c2ccc(Br)cc2)s1 (stereo not drawn)
18,140 to 142,CCN(CC)S(=O)(=O)c1ccc(C)c(C(=O)O)c1
19,148 to 150,Clc1ccnc2c(Br)cccc12
20,126 to 128,ClCc1ccnc(-c2ccc(Br)cc2)n1
21,75 to 77,O=[N+]([O-])c1ccc(S(=O)(=O)Cl)c(Cl)c1
22,216 to 218,CC(C)n1cnc2cc(C(=O)O)ccc21
23,80 to 82,Cc1csc(NCCc2ccccc2)n1

row,melting point [°C],SMILES
1,122 to 124,COc1ccc(C(=O)NCCCC(=O)O)cc1
2,182 to 184,Cc1cc(C(=O)O)cc(C)c1OCc1cccnc1
3,53 to 55,CCS(=O)(=O)c1ccc(Br)cc1
4,179 to 181,Cc1cc(C(=O)O)nn1-c1ccccc1Cl
5,67 to 69,COc1cccc(CC2(C(=O)O)CC3CCC2C3)c1 (stereo not drawn)
6,81 to 83,N#CC1CSCCN1 (stereo not drawn)
7,204 to 206,Cn1c(C(=O)O)c(Br)c2ccccc21
8,181 to 183,CNc1ncccc1C(N)=O
9,152 to 154,NC(=O)NCCc1cccnc1
10,97 to 99,CCn1cc2ccc(N)cc2n1
11,154 to 156,O=C(O)CCS(=O)(=O)c1ccc2c(c1)OCCO2
12,103 to 107,CN1CCN(S(=O)(=O)c2ccc(Cl)c(N)c2)CC1
13,64 to 66,CC(C)(C)OC(=O)N1CCCC(C#N)C1 (stereo not drawn)
14,54 to 56,O=C(O)Cc1ccc2c(c1)OCCO2
15,169 to 171,O=C(O)Cn1ccc2ccccc21
16,287 to 289,Cc1ccn2c(N)nnc2c1
17,97 to 99,N#CC(C(=O)c1ccccc1)c1ccccc1 (stereo not drawn)
18,133 to 135,Cc1ccccc1NC(=O)CC#N
19,81 to 83,O=C(CNCc1cccnc1)Nc1ccc(Cl)cc1
20,187 to 189,O=C(CCl)N1CCN(S(=O)(=O)c2ccc([N+](=O)[O-])cc2)CC1
21,289 to 291,Cc1cc(F)cc2c(=O)c(C(=O)O)c[nH]c12
22,187 to 189,CC(C)(C)OC(=O)N1CCc2n[nH]c(=O)cc2C1
23,143 to 145,NC(=O)COc1ccc(Cl)cc1S(=O)(=O)Cl

row,melting point [°C],SMILES
1,149 to 151,O=C(O)c1csc(Cc2cccc(F)c2)n1
2,141 to 143,CC(=O)Nc1ccc(Cl)cc1N
3,125 to 127,CCOc1ccc2ncc(C#N)c(Cl)c2c1
4,144 to 146,Nc1ccc(S(=O)(=O)Nc2ccc(Cl)c(C(F)(F)F)c2)cc1
5,106 to 108,Cc1ccccc1-n1cc(C(=O)O)cn1
6,128 to 130,Nc1ccccc1NC(=O)CC1C=CCC1 (stereo not drawn)
7,194 to 196,Cc1[nH]c(-c2cccnc2)nc(=NN)c1C
8,134 to 136,COCCOc1ccc(C(=O)O)cn1
9,165 to 167,NC(=O)NC(=O)OCCCCl
10,151 to 152,Cc1noc(C)c1S(N)(=O)=O
11,83 to 85,O=C(O)C1(S(=O)(=O)c2ccc(Cl)cc2)CCCC1
12,156 to 158,CCC1(C)NC(=O)N(CC(=O)O)C1=O (stereo not drawn)
13,229 to 231,CCC(=O)Nc1cccc(C(=O)O)c1
14,119 to 121,CS(=O)(=O)Nc1cccc(I)c1
15,113 to 115,Cc1nc(-c2ccc(F)cc2)sc1C(C)O (stereo not drawn)
16,123 to 125,CC1CCCN1C(=O)c1cc2ccccc2cc1N (stereo not drawn)
17,259 to 261,CN(C)c1cc(C(=O)O)c2ccccc2n1
18,196 to 198,O=C(O)CSc1ccsc1[N+](=O)[O-]
19,201 to 203,O=C(O)c1ccccc1CN1C(=O)CNC1=O
20,177 to 179,CNC(=O)c1ccc(N)cc1
21,175 to 177,Cc1ccc(-c2nc(N)sc2CN(C)C)cc1
22,149 to 151,O=C(Nc1cccc(Br)c1)c1cccc(S(=O)(=O)N2CCCCCC2)c1
23,159 to 161,CC1CC(C(=O)O)CC(=O)N1 (stereo not drawn)

row,SMILES,melting point [°C]
1,c1c[nH]c(C2CCNCC2)n1,176 to 178
2,C=CCn1cc(C(=O)O)c2ccccc21,159 to 161
3,O=C(O)CCCOc1ccccc1Cl,84 to 86
4,BrCc1cc(Br)c2c(c1)OCO2,123 to 125
5,Fc1ccc(COc2cccc(N3CCNCC3)c2)cc1,84 to 86
